Assay type in all cases: binding
One assay has as its target K-Ras G12S (Homo sapiens, UniProt P01116, G12S). The assay is described as follows: K-Ras G12S cross-linking assay (comparable procedure, conjugate formation, TOF mass spectrometry). Summed up:
(§1)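 5 μM protein (final, from 50 μM) in HEPES/NaCl/MgCl2 buffer pH 7.4 with compound typically at 2, 10 and 25 μM, room temperature, 1 and 24 h endpoints; formic acid quench. Intact-protein LC–TOF MS; percent modification is covalent adduct peak height over total K-Ras peak height.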

For assay [1], the target named is T1, GDP-loaded K-Ras (1-169) G12D, C51S, C80L, C118S (Homo sapiens, UniProt P01116, C118S/C51S/C80L/G12D).
T1 construct: GDP-loaded K-Ras (1-169) G12D, C51S, C80L, C118S
The assay can be described thus: K-Ras G12D(GDP) cross-linking assay (conjugate formation, TOF mass spectrometry). The following applies: percent covalently modified K-Ras by MS, room temperature, typical compound conc. 2, 10, 25 μM, endpoints 1 and 24 h. The procedure, abridged:
as §1

Assay [2] has as its target T2, GDP-loaded K-Ras (1-169) C51S, C80L, C118S (Homo sapiens, UniProt P01116, C118S/C51S/C80L).
T2 construct: GDP-loaded K-Ras (1-169) C51S, C80L, C118S
The assay is described as follows: K-Ras WT (GDP) cross-linking assay (conjugate formation, TOF mass spectrometry). The conditions noted are these: percent covalently modified K-Ras by MS, room temperature, typical compound conc. 2, 10, 25 μM, endpoints 1 and 24 h. The procedure, abridged:
as §1

[3] abbreviates: Table 4, percent covalently modified K-Ras by MS.

Each structure is given as a SMILES string.

Consider 17 compounds from patent US20230100838A1 (Revolution Medicines, Inc., priority 2019, published 2023).

For `CC(=O)N1CC1C(=O)N(C)C1CCN(c2nc(OC[C@@H]3CCCN3C)nc3c2CCN(c2cccc4cccc(C)c24)C3)CC1` (stereo partly drawn) [Example 43, 1-acetyl-N-methyl-N-(1-(7-(8-methylnaphthalen-1-yl)-2-(((S)-1-methylpyrrolidin-2-yl)methoxy)-5,6,7,8-tetrahydropyrido[3,4-d]pyrimidin-4-yl)piperidin-4-yl)aziridine-2-carboxamide], at K-Ras G12S (setting [3]), the “G12S x-linking (%)” value was “+ (0 < x ≤ 10)”. Besides, the “G12D x-linking (%)” value in assay [1] (Table 4) is “+ (0 < x ≤ 20)”. Also, the “WT x-linking (%)” value in assay [2] (Table 4) is on record as “+ (0 < x ≤ 20)”.
Regarding `Cc1cccc2cccc(N3CCc4c(nc(OC[C@@H]5CCCN5C)nc4N4CCC(N(C)C(=O)C5CN5S(C)(=O)=O)CC4)C3)c12` (stereo partly drawn) [Example 44, N-methyl-(1-(7-(8-methylnaphthalen-1-yl)-2-(((S)-1-methylpyrrolidin-2-yl)methoxy)-5,6,7,8-tetrahydropyrido[3,4-d]pyrimidin-4-yl)piperidin-4-yl)-1-(methylsulfonyl)aziridine-2-carboxamide], on K-Ras G12S (setting [3]), the “G12S x-linking (%)” value is “+ (0 < x ≤ 10)”. Besides, the “G12D x-linking (%)” value in assay [1] (Table 4) was “+ (0 < x ≤ 20)”. The “WT x-linking (%)” value in assay [2] (Table 4) is “+ (0 < x ≤ 20)”.
In the case of `Cc1cccc2cccc(N3CCc4c(nc(OC[C@@H]5CCCN5C)nc4N4CCC(N(C)C(=O)C5CN5C)CC4)C3)c12` (stereo partly drawn) [Example 45, N,1-dimethyl-N-(1-(7-(8-methylnaphthalen-1-yl)-2-(((S)-1-methylpyrrolidin-2-yl)methoxy)-5,6,7,8-tetrahydropyrido[3,4-d]pyrimidin-4-yl)piperidin-4-yl)aziridine-2-carboxamide], the “G12S x-linking (%)” value on K-Ras G12S (setting [3]) was “+ (0 < x ≤ 10)”. In addition, the “G12D x-linking (%)” value in assay [1] (Table 4) is “+ (0 < x ≤ 20)”. The “WT x-linking (%)” value in assay [2] (Table 4) is “+ (0 < x ≤ 20)”.
Take `Cc1cccc2cccc(N3CCc4c(nc(OC[C@@H]5CCCN5C)nc4N4CCN(C(=O)C5CN5)CC4)C3)c12` (stereo partly drawn) [Example 46, aziridin-2-yl(4-(7-(8-methylnaphthalen-1-yl)-2-(((S)-1-methylpyrrolidin-2-yl)methoxy)-5,6,7,8-tetrahydropyrido[3,4-d]pyrimidin-4-yl)piperazin-1-yl)methanone]: the “G12S x-linking (%)” value at K-Ras G12S (setting [3]) is recorded as “+ (0 < x ≤ 10)”. Also, the “G12D x-linking (%)” value in assay [1] (Table 4) is recorded as “+ (0 < x ≤ 20)”. The “WT x-linking (%)” value in assay [2] (Table 4) was “+ (0 < x ≤ 20)”.
Take `CC(=O)N1CC1C(=O)N1CCN(c2nc(OC[C@@H]3CCCN3C)nc3c2CCN(c2cccc4cccc(C)c24)C3)CC1` (stereo partly drawn) [Example 47, 1-(2-(4-(7-(8-methylnaphthalen-1-yl)-2-(((S)-1-methylpyrrolidin-2-yl)methoxy)-5,6,7,8-tetrahydropyrido[3,4-d]pyrimidin-4-yl)piperazine-1-carbonyl)aziridin-1-yl)ethan-1-one]: the “G12S x-linking (%)” value at K-Ras G12S (setting [3]) is on record as “+ (0 < x ≤ 10)”. Also, the “G12D x-linking (%)” value in assay [1] (Table 4) is listed as “+ (0 < x ≤ 20)”. Moreover, the “WT x-linking (%)” value in assay [2] (Table 4) is on record as “+ (0 < x ≤ 20)”.
In the case of `Cc1cccc2cccc(N3CCc4c(nc(OC[C@@H]5CCCN5C)nc4N4CCC(N=C=Nc5ccccc5)CC4)C3)c12` [Example 48, N-(1-(7-(8-methylnaphthalen-1-yl)-2-(((S)-1-methylpyrrolidin-2-yl)methoxy)-5,6,7,8-tetrahydropyrido[3,4-d]pyrimidin-4-yl)piperidin-4-yl)-N-phenylmethanediimine], the “G12S x-linking (%)” value on K-Ras G12S (setting [3]) was “+ (0 < x ≤ 10)”. Further, the “G12D x-linking (%)” value in assay [1] (Table 4) was “+ (0 < x ≤ 20)”. In addition, the “WT x-linking (%)” value in assay [2] (Table 4) is “+ (0 < x ≤ 20)”.
Take `Cc1cccc2cccc(N3CCc4c(nc(OC[C@@H]5CCCN5C)nc4N4CCC(N=C=NCc5ccc(Cl)cc5)CC4)C3)c12` [Example 49, N-(4-chlorobenzyl)-N-(1-(7-(8-methylnaphthalen-1-yl)-2-(((S)-1-methylpyrrolidin-2-yl)methoxy)-5,6,7,8-tetrahydropyrido[3,4-d]pyrimidin-4-yl)piperidin-4-yl)methanediimine]: on K-Ras G12S (setting [3]), the “G12S x-linking (%)” value is “+ (0 < x ≤ 10)”. Also, the “G12D x-linking (%)” value in assay [1] (Table 4) is on record as “+ (0 < x ≤ 20)”. Also, in assay [2] (Table 4), the “WT x-linking (%)” value is given as “+ (0 < x ≤ 20)”.
With `COc1ccc(CN=C=NC2CCN(c3nc(OC[C@@H]4CCCN4C)nc4c3CCN(c3cccc5cccc(C)c35)C4)CC2)cc1` [Example 50, N-(4-methoxybenzyl)-N-(1-(7-(8-methylnaphthalen-1-yl)-2-(((S)-1-methylpyrrolidin-2-yl)methoxy)-5,6,7,8-tetrahydropyrido[3,4-d]pyrimidin-4-yl)piperidin-4-yl)methanediimine], the “G12S x-linking (%)” value at K-Ras G12S (setting [3]) is “+ (0 < x ≤ 10)”. For the same compound, in assay [1] (Table 4), the “G12D x-linking (%)” value was “+ (0 < x ≤ 20)”. The “WT x-linking (%)” value in assay [2] (Table 4) is recorded as “+ (0 < x ≤ 20)”.
With `Cc1cccc2cccc(N3CCc4c(nc(OC[C@@H]5CCCN5C)nc4N4CCC(C(O)(O)C(F)(F)F)CC4)C3)c12` [Example 51, (S)-2,2,2-trifluoro-1-(1-(7-(8-methylnaphthalen-1-yl)-2-((1-methylpyrrolidin-2-yl)methoxy)-5,6,7,8-tetrahydropyrido[3,4-d]pyrimidin-4-yl)piperidin-4-yl)ethane-1,1-diol], the “G12S x-linking (%)” value on K-Ras G12S (setting [3]) was “+ (0 < x ≤ 10)”. Moreover, the “G12D x-linking (%)” value in assay [1] (Table 4) is “+ (0 < x ≤ 20)”. For the same compound, in assay [2] (Table 4), the “WT x-linking (%)” value is given as “+ (0 < x ≤ 20)”.
For `Cc1cccc2cccc(N3CCc4c(nc(OC[C@@H]5CCCN5C)nc4N4CCC(B(O)O)CC4)C3)c12` [Example 52, (S)-(1-(7-(8-methylnaphthalen-1-yl)-2-((1-methylpyrrolidin-2-yl)methoxy)-5,6,7,8-tetrahydropyrido[3,4-d]pyrimidin-4-yl)piperidin-4-yl)boronic Acid], at K-Ras G12S (setting [3]), the “G12S x-linking (%)” value is listed as “+ (0 < x ≤ 10)”. The “G12D x-linking (%)” value in assay [1] (Table 4) is “+ (0 < x ≤ 20)”. Further, the “WT x-linking (%)” value in assay [2] (Table 4) is “+ (0 < x ≤ 20)”.
Turning to `CCCN=C=NC1CCN(c2nc(=O)n(-c3c(C)ccnc3C(C)C)c3nc(-c4ccccc4F)c(F)cc23)CC1` [Example 53, 6-fluoro-7-(2-fluorophenyl)-1-(2-isopropyl-4-methylpyridin-3-yl)-4-(4-(((propylimino)methylene)amino)piperidin-1-yl)pyrido[2,3-d]pyrimidin-2(1H)-one], the “G12S x-linking (%)” value on K-Ras G12S (setting [3]) is given as “+ (0 < x ≤ 10)”. Besides, in assay [1] (Table 4), the “G12D x-linking (%)” value was “+ (0 < x ≤ 20)”. Moreover, in assay [2] (Table 4), the “WT x-linking (%)” value is “+ (0 < x ≤ 20)”.
For `COCCN=C=NC1CCN(c2nc(=O)n(-c3c(C)ccnc3C(C)C)c3nc(-c4ccccc4F)c(F)cc23)CC1` [Example 54, 6-fluoro-7-(2-fluorophenyl)-1-(2-isopropyl-4-methylpyridin-3-yl)-4-(4-((((2-methoxyethyl)imino)methylene)amino)piperidin-1-yl)pyrido[2,3-d]pyrimidin-2(1H)-one], on K-Ras G12S (setting [3]), the “G12S x-linking (%)” value was “+ (0 < x ≤ 10)”. For the same compound, the “G12D x-linking (%)” value in assay [1] (Table 4) is reported as “+ (0 < x ≤ 20)”. In addition, in assay [2] (Table 4), the “WT x-linking (%)” value was “+ (0 < x ≤ 20)”.
Turning to `CCCN=C=NCCCN(C)c1nc(=O)n(-c2c(C)ccnc2C(C)C)c2nc(-c3ccccc3F)c(F)cc12` [Example 55, 6-fluoro-7-(2-fluorophenyl)-1-(2-isopropyl-4-methylpyridin-3-yl)-4-(methyl(3-(((propylimino)methylene)amino)propyl)amino)pyrido[2,3-d]pyrimidin-2(1H)-one], the “G12S x-linking (%)” value at K-Ras G12S (setting [3]) is reported as “++ (10 < x ≤ 100)”. Moreover, the “G12D x-linking (%)” value in assay [1] (Table 4) is “++ (20 < x ≤ 40)”. The “WT x-linking (%)” value in assay [2] (Table 4) is recorded as “++ (20 < x ≤ 100)”.
On the same counts, the results for `COCCN=C=NCCCN(C)c1nc(=O)n(-c2c(C)ccnc2C(C)C)c2nc(-c3ccccc3F)c(F)cc12` [Example 56] are “++ (10 < x ≤ 100)”, “++ (20 < x ≤ 40)” and “++ (20 < x ≤ 100)”.
On the same counts, the results for `Cc1ccnc(C(C)C)c1-n1c(=O)nc(N(C)CCCN=C=NCc2ccccc2)c2cc(F)c(-c3ccccc3F)nc21` [Example 57] are “++ (10 < x ≤ 100)”, “++ (20 < x ≤ 40)” and “+ (0 < x ≤ 20)”.
Consider `COc1ccc(CN=C=NCCCN(C)c2nc(=O)n(-c3c(C)ccnc3C(C)C)c3nc(-c4ccccc4F)c(F)cc23)cc1` [Example 58], for which the “G12S x-linking (%)” value on K-Ras G12S (setting [3]) is given as “++ (10 < x ≤ 100)”. Also, in assay [1] (Table 4), the “G12D x-linking (%)” value is on record as “+ (0 < x ≤ 20)”. Besides, the “WT x-linking (%)” value in assay [2] (Table 4) was “+ (0 < x ≤ 20)”.
For the compound `Cc1cccc2cccc(N3CCc4c(nc(OC[C@@H]5CCCN5C)nc4N4CCN(C(=O)[C@H]5CN5)[C@@H](CC#N)C4)C3)c12` [Example 63, 2-((S)-1-((R)-aziridine-2-carbonyl)-4-(7-(8-methylnaphthalen-1-yl)-2-(((S)-1-methylpyrrolidin-2-yl)methoxy)-5,6,7,8-tetrahydropyrido[3,4-d]pyrimidin-4-yl)piperazin-2-yl)acetonitrile], the “G12S x-linking (%)” value on K-Ras G12S (Table 5, percent covalently modified K-Ras by MS) is recorded as “+ (0 < x ≤ 10)”. In assay [1] (Table 5), the “G12D x-linking (%)” value was “++ (20 < x ≤ 40)”. In assay [2] (Table 5), the “WT x-linking (%)” value was “+ (0 < x ≤ 20)”.
